Paper PMC11081523, “An ensemble machine learning model generates a focused screening library for the identification of CDK8 inhibitors” (Protein Science : A Publication of the Protein Society, 2024)

Molecular target: CDK8 (Homo sapiens, UniProt P49336)
Experiment: LanthaScreen kinase activity assay (Thermo Fisher SelectScreen kinase profiling service)
Format: biochemical
Conditions: for IC50: CDK8, dose-response at 10,000, 3000, 1000, 300 and 100 nM; for inhibition at 10 µM: CDK8 inhibition, compounds tested at 10 μM, read-out: Inhibitory activity (10 μM)
Protocol: Selected compounds were tested using the Thermo Fisher Scientific SelectScreen kinase profiling service (www.thermofisher.com/selectscreen). The LanthaScreen kinase activity assay was used. In short, a reaction between fluorescein‐labeled substrate and ATP is performed in a container. The reaction is ceased with the addition of EDTA. A terbium‐labeled antibody is added to detect phosphorylated fluorescein‐labeled substrate. A ratio between the acceptor and donor signal is an indicator of the amount of phosphorylated substrate present in the reaction, thereby indicating kinase activity.

Chain of CDK8 (P49336 whole entry): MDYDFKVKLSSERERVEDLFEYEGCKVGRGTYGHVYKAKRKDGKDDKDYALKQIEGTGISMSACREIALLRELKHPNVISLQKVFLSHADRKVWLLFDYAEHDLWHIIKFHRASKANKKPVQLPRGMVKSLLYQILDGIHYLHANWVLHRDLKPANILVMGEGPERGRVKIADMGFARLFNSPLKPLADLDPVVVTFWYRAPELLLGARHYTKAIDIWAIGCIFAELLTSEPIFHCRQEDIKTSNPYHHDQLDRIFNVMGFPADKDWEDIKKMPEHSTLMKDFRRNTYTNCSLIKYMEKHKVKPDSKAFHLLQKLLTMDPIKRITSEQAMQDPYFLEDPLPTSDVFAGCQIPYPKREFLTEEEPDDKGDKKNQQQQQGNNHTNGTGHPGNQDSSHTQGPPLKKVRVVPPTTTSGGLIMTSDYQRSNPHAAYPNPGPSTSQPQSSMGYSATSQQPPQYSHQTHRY
Chain of CDK8 (P24863 whole entry partner): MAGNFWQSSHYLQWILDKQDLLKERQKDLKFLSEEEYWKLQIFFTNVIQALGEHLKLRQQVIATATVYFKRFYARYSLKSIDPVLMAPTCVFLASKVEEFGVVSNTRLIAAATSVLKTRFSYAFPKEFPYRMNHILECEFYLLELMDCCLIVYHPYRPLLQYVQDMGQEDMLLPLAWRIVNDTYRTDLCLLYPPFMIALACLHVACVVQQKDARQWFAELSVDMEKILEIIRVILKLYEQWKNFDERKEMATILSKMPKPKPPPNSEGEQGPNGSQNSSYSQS

| Structure (SMILES) | IC50 [nM] | inhibition at 10 µM [%] |
| --- | --- | --- |
| CC1CCN(C(=O)c2ccc3ncnc(N4CCCCC4)c3c2)CC1 [M628‐0340] | 1920 | 77 |
| CCn1cc(-c2ccncc2)cc1C(=O)N1CCN(c2ccc(Cl)cc2)CC1 [P076‐1220] | 4440 | 71 |
| CCCn1cc(-c2ccncc2)cc1C(=O)N1CCC(C)CC1 [P076‐1448] | 2260 | 73 |

Compounds with a lower IC50, results first:

| IC50 [nM] | inhibition at 10 µM [%] | Structure (SMILES) |
| --- | --- | --- |
| 1840 | 71 | COc1ccc2ncc(C#N)c(N3CCC(C(=O)Nc4ccc(F)c(C)c4)CC3)c2c1 [L483‐0192] |
| 1160 | > 90 | CCc1cc2c(N3CCCC(C(=O)N4CCN(c5ccc(F)cc5)CC4)C3)ncnc2s1 (stereo not drawn) [G887‐0711] |
| 99.9 | > 90 | Cc1ccc(NC(=O)Nc2cnn(-c3ncncc3N3CCOCC3)c2)cc1C [T479‐0984] |
